# Assay results reported in patent US20240092800A1, “USP13 INHIBITORS AND METHODS OF USE THEREOF” (GEORGETOWN UNIVERSITY, priority 2021, published 2024).
# Assays:
# [1] = biological target: T1, human USP13 (Homo sapiens, UniProt Q92995); assay: USP13 activity via ELISA in SHSY5Y cells; type: cell-based; details: for IC50: SHSY5Y cell line, estimated with GraphPad Prism, read-out: IC50 to inhibit USP13 activity; for USP13 activity via ELISA: SHSY5Y cells, 5 hours, concentration range of 1 nM-1 mM
# T1 construct: USP13 activity via ELISA in human SHSY5Y neuroblastoma cells; endogenous in cells; host or cells: human SH-SY5Y neuroblastoma cells (transiently transfected with human wild-type alpha-synuclein, not with USP13)
# T1 sequence (Q92995 1-863): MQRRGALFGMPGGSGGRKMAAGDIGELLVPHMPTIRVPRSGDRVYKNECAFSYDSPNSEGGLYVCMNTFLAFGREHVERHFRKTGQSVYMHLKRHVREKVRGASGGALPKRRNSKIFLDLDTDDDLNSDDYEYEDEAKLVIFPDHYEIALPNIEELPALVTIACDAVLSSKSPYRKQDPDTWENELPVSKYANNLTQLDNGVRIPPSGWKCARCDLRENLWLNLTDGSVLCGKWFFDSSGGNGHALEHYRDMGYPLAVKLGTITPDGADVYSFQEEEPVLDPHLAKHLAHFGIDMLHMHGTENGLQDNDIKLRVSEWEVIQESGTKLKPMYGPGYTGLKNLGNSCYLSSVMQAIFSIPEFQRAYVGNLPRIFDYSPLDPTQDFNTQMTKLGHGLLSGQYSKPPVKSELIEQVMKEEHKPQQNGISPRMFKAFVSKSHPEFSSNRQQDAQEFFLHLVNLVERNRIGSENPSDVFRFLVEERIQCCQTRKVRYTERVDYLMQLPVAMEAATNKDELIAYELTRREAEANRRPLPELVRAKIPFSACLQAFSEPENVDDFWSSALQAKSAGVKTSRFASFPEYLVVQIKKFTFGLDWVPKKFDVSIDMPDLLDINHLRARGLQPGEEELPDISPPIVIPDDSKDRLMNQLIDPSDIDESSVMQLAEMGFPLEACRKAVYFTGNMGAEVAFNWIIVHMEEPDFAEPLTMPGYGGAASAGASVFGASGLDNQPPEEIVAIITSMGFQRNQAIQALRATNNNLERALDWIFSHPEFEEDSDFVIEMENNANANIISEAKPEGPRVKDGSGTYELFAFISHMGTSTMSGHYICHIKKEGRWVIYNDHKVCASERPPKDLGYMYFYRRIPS
# Protocol: (§1) Cell lines, transfection, and treatment.
# (§2) A total of 25 μL soluble protein was incubated overnight at 4° C. with 25 μL of a mixed bead solution. After washing, samples were incubated with 25 μL detection antibody solution for 1.5 hours at room temperature. Streptavidin-phycoerythrin (25 μL) was added to each well containing the 25 μL of detection antibody solution. Samples were then washed and suspended in 100 μL of sheath fluid. Samples were then run on MAGPIX with Xponent software. The median fluorescent intensity (MFI) data were analyzed using a 5-parameter logistic or spline curve-fitting method for calculating analyte concentrations in samples. Specific alpha-synuclein ELISAs were performed on tissue soluble extracts from midbrain lysates in 1XSTEN buffer. The ELISA for USP13 (MyBioSource, Cat # MBS9335287), Human alpha-synuclein (Biolegend, Cat #844101) and specific p-Tau ser396 (Invitrogen, KHB7031) were performed on cell or brain tissue extracts as described above according to manufacturers' protocol.
# Statistical and Data Analysis. All statistical analyses were performed using GraphPad Prism version 5.0 (GraphPad software, Inc, San Diego, CA, USA). Two-tailed student's t-test was used in comparison of means of two groups. Ordinary one-way analysis of variance (ANOVA) followed by Newman-Keuls or Dunnett comparison post hoc tests were used in comparison of means of multiple groups. Asterisks denote actual p-value significances (*<0.05, **<0.01, ***<0.001 and ****<0.0001), and N is the number of animals or the number of independent experiments (cell culture) per group. Unless otherwise indicated, data are expressed as Mean±SD. IC50 to USP13 levels was also estimated using GraphPad Prism version 5.0 (GraphPad software, Inc, San Diego, CA, USA).
# [2] = tested on: human alpha-synuclein; assay: Alpha-synuclein levels via ELISA in alpha-synuclein-transfected SHSY5Y cells; type: cell-based; details: 5 hours, concentration between 1 and 0.1 nM
# Protocol: as §1
# Alpha-Synuclein Enzyme-Linked Immunosorbent Assay (ELISA). ELISAs for total human alpha-synuclein (Millipore; Burlington, MA) were conducted using Milliplexed ELISA. Briefly, Xmap technology uses magnetic microspheres that are internally coded with two fluorescent dyes. Through precise combinations of these two dyes, multiple proteins are simultaneously measured within a sample. Each of these spheres is coated with a specific capture antibody. The capture antibody binds to the detection antibody and a reporter molecule, completing the reaction on the surface of the bead.
# as §2
# [3] = tested on: human SHSY5Y neuroblastoma cells; assay: Cell viability by MTT and LDH assays; details: 5 hours, up to 1 mM concentration
# Protocol: Human SHSY-5Y neuroblastoma cells were cultured in Dulbecco's Modified Eagle's Medium (DMEM) (ThermoFisher Scientific; Waltham, MA) with 10% Fetal Bovine Serum (FBS) (ThermoFisher) and 1% Penicillin-Streptomycin (PenStrep, ThermoFisher) and incubated at 37° C. under atmospheric oxygen concentrations (21%) with 5% CO2. SHSY-5Y cells were cultured in DMEM with Ham's F12 (1:1) (ThermoFisher) with 20% FBS, 1% PenStrep. Cells were plated at a density tailored to reach 70-80% confluence at the beginning of every experiment. SH-SY5Y cells were transiently transfected for 24 hours with human wild-type α-synuclein using Fugene HD transfection reagent (Promega; Madison, WI) before fresh culture media and drug were added.
# Cell viability was determined via lactate dehydrogenase assay on culture media, (ThermoFisher) and MTT assay on plated cells (ThermoFisher).
SMILES,IC50 [1] [nM],USP13 activity via ELISA [1],level of alpha-synuclein via ELISA [2],cell death in two viability assays (MTT and LDH) [3]
"Fc1ccc2nccc(NCc3ccccc3)c2c1 [CL3-499, N-Benzyl-6-fluoroquinolin-4-amine]",1190,significantly reduce the activity of human USP13,significantly reduce the level of alpha-synuclein,do not cause cell death
"Fc1ccc(CNc2ncnc3ccc(F)cc23)cc1 [Spautin-1, reference compound]",600 to 700,–,–,–
"COC(=O)[C@H](Cc1ccc(O)cc1)Nc1c([N+](=O)[O-])c(=O)oc2ccccc12 [CL3-514, (S)-Methyl (3-nitro-2-oxo-2H-chromen-4-yl)-tyrosinate]",68.9,significantly reduce the activity of human USP13,significantly reduce the level of alpha-synuclein,do not cause cell death
"c1ccc(Nc2ccnc3ccsc23)cc1 [BK50118-A, N-Phenylthieno[3,2-b]pyridin-7-amine]",26,significantly reduce the activity of human USP13,significantly reduce the level of alpha-synuclein,do not cause cell death
"Fc1ccc2nccc(Nc3ccccc3)c2c1 [BK50118-B, 6-Fluoro-N-phenylquinolin-4-amine]",36.9,significantly reduce the activity of human USP13,significantly reduce the level of alpha-synuclein,do not cause cell death
"COC(=O)[C@H](Cc1ccccc1)Nc1c([N+](=O)[O-])c(=O)oc2ccccc12 [CL3-512, (S)-Methyl (3-nitro-2-oxo-2H-chromen-4-yl)-phenylalaninate]",1080,significantly reduce the activity of human USP13,significantly reduce the level of alpha-synuclein,do not cause cell death
